From ChEMBL document CHEMBL2069212, “Identification and in vivo and in vitro characterization of long acting and melanocortin 4 receptor (MC4-R) selective α-melanocyte-stimulating hormone (α-MSH) analogues” (J Med Chem, 2012)
Activity calls are given as the source filed them. The calls are words filed in the database; no cut-off is given here.

Experiments:
[1] = target: Melanocortin receptor 5 (Homo sapiens, UniProt P33032); experiment: Displacement of [125I]-NAD-alpha-MSH from human recombinant MC3 receptor human MC5 expressed in BHK570 cells after 1 hr in presence of ovalbumin; type: cell-based
[2] = target: T1, Melanocortin receptor 4 (Homo sapiens, UniProt P32245); experiment: Agonist activity at human recombinant MC4 receptor expressed in BHK570 cells assessed as induction of […] accumulation in presence of 0.1% human serum albumin; type: functional, cell-based
[3] = target: Melanocortin receptor 3 (Homo sapiens, UniProt P41968); experiment: Displacement of [125I]-NAD-alpha-MSH from human recombinant MC3 receptor expressed in BHK570 cells after 1 hr in presence of ovalbumin; type: cell-based
[4] = test system: Rattus norvegicus; experiment: Antiobesity activity in Sprague-Dawley rat assessed as reduction of food intake at 3 mg/kg, sc qd measured up to 7 hrs relative to control; type: functional; parameters: scale not given: the % may be the effect or the level left; conditions: route subcutaneous
[5] = Dissociation constant, pKa of the compound; type: physicochemical
[6] = test system: Rattus norvegicus; experiment: Antiobesity activity in Sprague-Dawley rat assessed as reduction of food intake at 3 mg/kg, sc qd measured after 7 to 24 hrs relative to control; type: functional; parameters: scale not given: the % may be the effect or the level left; conditions: route subcutaneous
[7] = target: Melanocyte-stimulating hormone receptor (Homo sapiens, UniProt Q01726); experiment: Displacement of [125I]-NAD-alpha-MSH from human recombinant MC1 receptor expressed in BHK570 cells after 90 mins in presence of ovalbumin; type: cell-based
[8] = target: T1, Melanocortin receptor 4; experiment: Displacement of [125I]-NAD-alpha-MSH from MC4 receptor after 2 hrs by gamma counting in presence of ovalbumin
[9] = test system: Rattus norvegicus; experiment: Antiobesity activity in Sprague-Dawley rat assessed as reduction of food intake at 3 mg/kg, sc qd measured after 24 to 48 hrs relative to control; type: functional; conditions: route subcutaneous
[10] = target: T1, Melanocortin receptor 4; experiment: Agonist activity at human recombinant MC4 receptor expressed in BHK570 cells assessed as induction of […] accumulation relative to alpha-MSH in presence of 0.1% human serum albumin; type: functional, cell-based
[11] = target: Melanocortin receptor 4 (Rattus norvegicus) (UniProt P70596); experiment: Agonist activity at rat MC4 receptor; type: functional
[12] = Solubility of the compound at pH 3 to 8; type: physicochemical; conditions: buffer
[13] = Half life in human; type: ADME, organism-based; conditions: in vivo

T1 sequence (P32245 whole entry): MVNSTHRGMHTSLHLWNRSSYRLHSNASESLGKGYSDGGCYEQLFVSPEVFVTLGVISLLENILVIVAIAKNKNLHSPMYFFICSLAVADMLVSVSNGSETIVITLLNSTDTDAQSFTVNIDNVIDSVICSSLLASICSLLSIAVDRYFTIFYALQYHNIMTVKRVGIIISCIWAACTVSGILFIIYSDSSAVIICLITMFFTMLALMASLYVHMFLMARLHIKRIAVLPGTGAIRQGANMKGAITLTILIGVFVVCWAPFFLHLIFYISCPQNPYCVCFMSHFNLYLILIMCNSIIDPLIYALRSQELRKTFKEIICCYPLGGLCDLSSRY
Sequence of Melanocyte-stimulating hormone receptor (Q01726 whole entry): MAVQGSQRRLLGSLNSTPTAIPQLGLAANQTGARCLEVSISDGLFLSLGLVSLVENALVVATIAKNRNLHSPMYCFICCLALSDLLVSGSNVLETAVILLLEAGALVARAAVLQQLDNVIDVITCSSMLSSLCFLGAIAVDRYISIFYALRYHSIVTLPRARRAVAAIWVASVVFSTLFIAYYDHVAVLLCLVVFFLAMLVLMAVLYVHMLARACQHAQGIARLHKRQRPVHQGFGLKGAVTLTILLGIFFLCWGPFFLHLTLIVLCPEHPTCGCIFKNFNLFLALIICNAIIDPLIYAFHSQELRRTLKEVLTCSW
Sequence of Melanocortin receptor 5 (P33032 whole entry): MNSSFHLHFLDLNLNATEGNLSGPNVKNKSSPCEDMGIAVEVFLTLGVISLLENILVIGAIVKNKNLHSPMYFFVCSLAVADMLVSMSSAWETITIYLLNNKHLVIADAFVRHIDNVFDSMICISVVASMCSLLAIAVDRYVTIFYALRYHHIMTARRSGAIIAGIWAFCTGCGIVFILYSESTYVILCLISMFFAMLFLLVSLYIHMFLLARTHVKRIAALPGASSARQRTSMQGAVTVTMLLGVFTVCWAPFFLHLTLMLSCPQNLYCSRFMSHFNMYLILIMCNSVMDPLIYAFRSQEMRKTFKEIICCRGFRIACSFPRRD
Sequence of Melanocortin receptor 3 (P41968 whole entry): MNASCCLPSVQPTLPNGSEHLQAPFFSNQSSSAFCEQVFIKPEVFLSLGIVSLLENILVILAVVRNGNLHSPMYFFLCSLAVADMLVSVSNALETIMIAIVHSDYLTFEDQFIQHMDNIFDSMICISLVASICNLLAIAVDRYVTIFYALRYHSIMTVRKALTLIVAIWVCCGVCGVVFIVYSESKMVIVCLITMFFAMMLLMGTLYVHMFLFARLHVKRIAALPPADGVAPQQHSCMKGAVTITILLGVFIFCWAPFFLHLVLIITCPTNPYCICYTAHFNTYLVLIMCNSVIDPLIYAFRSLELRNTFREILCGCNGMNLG
Sequence of Melanocortin receptor 4 (Rattus norvegicus) (P70596 whole entry): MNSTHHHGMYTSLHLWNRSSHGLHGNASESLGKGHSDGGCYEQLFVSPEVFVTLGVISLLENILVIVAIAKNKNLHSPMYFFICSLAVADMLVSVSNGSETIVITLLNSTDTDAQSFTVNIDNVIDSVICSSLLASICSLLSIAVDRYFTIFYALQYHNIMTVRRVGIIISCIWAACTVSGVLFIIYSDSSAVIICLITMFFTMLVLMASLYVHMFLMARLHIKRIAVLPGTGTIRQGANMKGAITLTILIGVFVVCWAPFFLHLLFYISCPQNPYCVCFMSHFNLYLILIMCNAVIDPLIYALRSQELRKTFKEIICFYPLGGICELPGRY

SMILES | pKa [5] | Ki [7] | Ki [8] | Emax [10] | Activity [11] | half-life [13] | Ki [1] | EC50 [2] | Ki [3] | Activity [4] | Activity [6] | Food intake relative to control [9] | solubility [12]
CCCC[C@H](NC(=O)[C@H](CNC(=O)CN(CC(=O)O)CC(=O)O)NC(=O)[C@H](Cc1cnc[nH]1)NC(=O)[C@H](CCC(N)=O)NC(=O)[C@H](CO)NC(=O)CNC(=O)COCCOCCNC(=O)CCCCCCCCCCCCCCCc1nnn[nH]1)C(=O)N[C@H]1CCC(=O)NCCCC[C@@H](C(N)=O)NC(=O)[C@H](Cc2c[nH]c3ccccc23)NC(=O)[C@H](CCCNC(=N)N)NC(=O)[C@@H](Cc2ccccc2)NC(=O)[C@@H]2C[C@@H](O)CN2C1=O | – | – | – | 85% | Active | – | – | – | – | 53% | 39% | 66% | –
CCCC[C@H](NC(=O)[C@H](CNC(=O)CN(CC(=O)O)CC(=O)O)NC(=O)[C@H](Cc1cnc[nH]1)NC(=O)[C@H](CCC(N)=O)NC(=O)[C@H](CO)NC(=O)CNC(=O)COCCOCCNC(=O)CCCCCCCCCCCCCCCc1nnn[nH]1)C(=O)N[C@H]1CCC(=O)NCCCC[C@@H](C(N)=O)NC(=O)[C@H](Cc2c[nH]c3ccccc23)NC(=O)[C@H](CCCN=C(N)N)NC(=O)[C@@H](Cc2ccccc2)NC(=O)[C@@H]2C[C@@H](O)CN2C1=O | – | – | – | – | – | – | 13 nM | 88 nM | 71 nM | – | – | – | soluble
CCCC[C@H](NC(C)=O)C(=O)N[C@H]1CC(=O)NCCCC[C@@H](C(=O)O)NC(=O)[C@H](Cc2c[nH]c3ccccc23)NC(=O)[C@H](CCCNC(=N)N)NC(=O)[C@@H](Cc2ccccc2)NC(=O)[C@H](Cc2c[nH]cn2)NC1=O [BREMELANOTIDE] | – | 6.4 nM | – | – | – | 2 h | – | – | – | 23% | 91% | 100% | –

Continued, in another order:

pKa [5] | Ki [7] | Ki [8] | Emax [10] | Activity [11] | half-life [13] | SMILES | Ki [1] | EC50 [2] | Ki [3] | Activity [4] | Activity [6] | Food intake relative to control [9] | solubility [12]
2 | 230 nM | 0.11 nM | – | – | – | CCCCCCCCCCCCCCCC(=O)NS(=O)(=O)CCCC(=O)NCC(=O)N[C@@H](CO)C(=O)N[C@@H](CCC(N)=O)C(=O)N[C@@H](Cc1cnc[nH]1)C(=O)N[C@@H](CO)C(=O)N[C@@H](CCCC)C(=O)N[C@H]1CCC(=O)NCCCC[C@@H](C(N)=O)NC(=O)[C@H](Cc2c[nH]c3ccccc23)NC(=O)[C@H](CCCNC(=N)N)NC(=O)[C@@H](Cc2ccccc2)NC(=O)[C@@H]2C[C@@H](O)CN2C1=O | 1.2 nM | 0.15 nM | 8.2 nM | 40% | 36% | 58% | –
– | – | – | 77% | – | – | CCCC[C@H](NC(=O)[C@H](CCC(=O)O)NC(=O)[C@H](CCCNC(=N)N)NC(=O)[C@H](CCC(=O)O)NC(=O)[C@H](CCC(=O)O)NC(=O)CNC(=O)COCCOCCNC(=O)CCCCCCCCCCCCCCCc1nnn[nH]1)C(=O)N[C@H]1CCC(=O)NCCCC[C@@H](C(N)=O)NC(=O)[C@H](Cc2c[nH]c3ccccc23)NC(=O)[C@H](CCCNC(=N)N)NC(=O)[C@@H](Cc2ccccc2)NC(=O)[C@@H]2C[C@@H](O)CN2C1=O | – | – | – | 74% | 90% | 98% | –
– | – | – | – | Active | – | CCCC[C@H](NC(=O)[C@H](CN)NC(=O)[C@H](Cc1cnc[nH]1)NC(=O)[C@H](CCC(N)=O)NC(=O)[C@H](CO)NC(=O)CNC(=O)COCCOCCNC(=O)CCCCCCCCCCCCCCCc1nnn[nH]1)C(=O)N[C@H]1CCC(=O)NCCCC[C@@H](C(N)=O)NC(=O)[C@H](Cc2c[nH]c3ccccc23)NC(=O)[C@H](CCCNC(=N)N)NC(=O)[C@@H](Cc2ccccc2)NC(=O)[C@@H]2C[C@@H](O)CN2C1=O | – | – | – | 49% | 45% | 73% | –
